Reference: patent US11865176B2, “Compositions and methods of modulating anti-tumor immunity” (Dana-Farber Cancer Institute, Inc., priority 2016, dated 2024)

System: PD-1-overexpressing Jurkat cells
Experiment: Small molecule screen: IL2 secretion (AlphaLISA) from stimulated PD-1-overexpressing Jurkat cells
Format: cell-based, human
Conditions: 3.3 μM compound; for Zscore_1 / Zscore_2: IL2 level, α-CD3/α-CD28/α-PD-1 beads; for Zscore_1: replicate 1; for Zscore_2: replicate 2; for Zscore_AVG: average of replicate Z scores
In short: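 Cells (100,000/well) with compound at 3.3 μM final, stimulated by α-CD3/α-CD28/α-PD-1 Dynabeads at an 8:1 bead:cell ratio. IL2 in supernatants measured by AlphaLISA. Hits scored ≥3 SD from the mean of DMSO-treated, α-PD-1-bead-stimulated controls.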

Row | Molecule | Zscore_1 | Zscore_2 | Zscore_AVG
1 | Cc1ccc(NC2=CC(=O)c3sc(C)nc3C2=O)cc1 [Cdk4 Inhibitor III] | −6.073 | −8.107 | −7.09
2 | COc1cc2ncnc(Nc3cccc(Cl)c3)c2cc1OC [AG 1478] | −1.129 | −1.216 | −1.173
3 | COc1ccc(C(=O)Nc2sc3c(c2C(N)=O)CCCC3)cc1OC [Flt-3 Inhibitor] | 1.516 | 2.085 | 1.801
4 | Indirubin-3′-monoxime | 2.085 | 1.884 | 1.985
5 | COc1cc2ncnc(N3CCN(C(=O)Nc4ccc(Oc5ccccc5)cc4)CC3)c2cc1OC [PDGF Receptor Tyrosine Kinase Inhibitor III] | 1.681 | 3.032 | 2.357
6 | CaMKII Inhibitor, CK59 | −0.8337 | −0.5161 | −0.6749
7 | CCCCc1c(-c2ccc(O)cc2)[nH]c2nccnc12 [Aloisine A, RP107] | −3.301 | −1.322 | −2.311
8 | N#CC(c1ccnc(NCCc2cccnc2)n1)c1nc2ccccc2s1 (centres unmarked) [JNK Inhibitor V] | −0.3788 | 3.626 | 1.623
9 | CCn1cnc2c(Nc3cccc(Cl)c3)nc(N[C@@H]3CCCC[C@@H]3N)nc21 [Cdk1 Inhibitor, CGP74514A] | 1.595 | −1.02 | 0.2878
10 | CO[C@H]1[C@@H](OC)C[C@H](C)[C@@H](OC)C2=CC(=O)C=C(NC(=O)/C(C)=C/C=C\[C@H](OC)[C@@H](OC(N)=O)/C(C)=C/[C@@H]1C)C2=O [Herbimycin A, Streptomyces sp.] | 5.643 | 3.663 | 4.653
11 | O=c1c(O)c(-c2ccc(O)c(O)c2)oc2cc(O)c(O)c(O)c12 [Quercetagetin] | −1.427 | −1.66 | −1.543
12 | NC(=O)c1ccc2[nH]ccc2c1 [p38 MAP Kinase Inhibitor VII, SD-169] | 0.7558 | 1.067 | 0.9116
13 | CCCCCCOC(=O)[C@]1(O)C[C@@H]2O[C@@]1(C)n1c3ccccc3c3c4c(c5c6ccccc6n2c5c31)C(=O)NC4 [KT5720] | 10.81 | 13.17 | 11.99
14 | Cc1cc2ncc(-c3ccccc3)nc2cc1C [AG 1295] | −0.2372 | −3.097 | −1.667
15 | O=c1[nH][nH]c2nnc(-c3c(-c4ccccc4)nn4ccccc34)cc12 [ERK Inhibitor II, Negative Control] | −1.778 | 1.052 | −0.3634
16 | O=C1NC(=O)c2cc(Nc3ccc(F)cc3)c(Nc3ccc(F)cc3)cc21 [PKCbII/EGFR Inhibitor] | −0.838 | 0.616 | −0.111
17 | COc1ccc(S(=O)(=O)N(CCO)c2ccccc2CN(C)C/C=C/c2ccc(Cl)cc2)cc1 [KN-93] | −0.2896 | −2.889 | −1.589
18 | VEGFR Tyrosine Kinase Inhibitor IV | −0.8723 | −2.305 | −1.589
19 | COc1ccc(OC)c2c(=S)c3ccccc3[nH]c12 [Cdk4 Inhibitor II, 625987] | 0.5748 | −1.274 | −0.3496
20 | CCN(CC)CCNC(=O)c1c(C)[nH]c(/C=C2\C(=O)Nc3ccc(Cl)cc32)c1C [SU11652] | 8.033 | −6.691 | 0.671
21 | COc1ccc2nc3n[nH]c(C)c3c(NCCOCCO)c2c1 [Ras/Rac Transformation Blocker, SCH 51344] | −2.363 | −3.128 | −2.746
22 | O=C1Cc2c([nH]c3ccc([N+](=O)[O-])cc23)-c2ccccc2N1 [Alsterpaullone] | −0.7783 | −3.341 | −2.06
23 | Cn1cnc2cc3c(Nc4cccc(Br)c4)ncnc3cc21 [BPIQ-I] | 0.6533 | 1.97 | 1.312
24 | O=C1NCCc2[nH]c(-c3ccncc3)cc21 [Cdc7/Cdk9 Inhibitor] | −9.816 | −10.33 | −10.08
25 | Fc1ccc(-c2nc3n(c2-c2ccncc2)CCS3)cc1 [SKF-86002] | −0.4953 | −2.331 | −1.413
26 | O=c1cc(N2CCNCC2)oc2c(-c3ccccc3)cccc12 [LY 303511] | 1.21 | −0.8685 | 0.1705

Row | Molecule | Zscore_1 | Zscore_2 | Zscore_AVG
27 | CC[C@H](CO)Nc1nc(NCc2ccccc2)c2ncn(C(C)C)c2n1 [Roscovitine] | −1.54 | −2.209 | −1.875
28 | Cc1nc(N)sc1-c1ccnc(Nc2cccc([N+](=O)[O-])c2)n1 [Cdk2/9 Inhibitor] | −10.43 | −10.59 | −10.51
29 | IKK-2 Inhibitor XI | −4.485 | −6.012 | −5.248
30 | O=C1Nc2ccc(I)cc2/C1=C1/Nc2ccccc2/C1=N\O [Indirubin-3′-monoxime, 5-Iodo-] | 10.18 | 17.16 | 13.67
31 | Polo-like Kinase Inhibitor I | −0.8886 | 0.6237 | −0.1325
32 | O=c1cc(N2CCOCC2)oc2c1ccc1ccccc12 [DNA-PK Inhibitor II] | 0.06496 | 0.1041 | 0.08452
33 | NC(=O)c1cccc(-c2cc(Nc3ccc(OC(F)(F)F)cc3)ncn2)c1 [Bcr-abl Inhibitor] | 1.402 | 5.274 | 3.338
34 | Cl.Cl.Nc1ncnc2nc(-c3ccc(N4CCOCC4)nc3)cc(-c3cccc(Br)c3)c12 [Adenosine Kinase Inhibitor] | 0.3983 | 0.5922 | 0.4953
35 | CC(C)(C)c1ccc(S(=O)(=O)Nc2ccc(-n3ccnc3)cc2)cc1 [Stem-Cell Factor/c-Kit Inhibitor, ISCK03] | −0.9751 | −0.07435 | −0.5247
36 | N#C/C(=C(/N)Sc1ccc(N)cc1)c1ccccc1C(F)(F)F [MEK 1/2 Inhibitor] | −4.769 | −6.395 | −5.582
37 | c1ccc(-c2cnc(Nc3ccc(OCCN4CCCC4)cc3)s2)cc1 [Flt-3 Inhibitor III] | 1.171 | 3.361 | 2.266
38 | Oc1ccc(Nc2nc(-c3ccc(Cl)cc3)cs2)cc1 [Sphingosine Kinase Inhibitor] | −3.806 | −4.154 | −3.98
39 | CC(=O)O/N=C1/C(=C2/C(=O)Nc3cc(Br)ccc32)Nc2ccccc21 [GSK-3 Inhibitor X] | 28.58 | 35.89 | 32.23
40 | NC(=O)Nc1sc(-c2ccc(F)cc2)cc1C(N)=O [IKK-2 Inhibitor IV] | −1.558 | −4.19 | −2.874
41 | O=c1cc(N2CCOCC2)oc2c(-c3ccccc3)cccc12 [LY 294002] | −1.451 | 0.6923 | −0.3791
42 | PIM1 Kinase Inhibitor II | −1.398 | −0.8562 | −1.127
43 | COc1cc2c(cc1OC)-c1[nH]nc(Nc3cccc(F)c3)c1C2 [PDGF Receptor Tyrosine Kinase Inhibitor IV] | −0.8894 | −1.508 | −1.199
44 | Cdk Inhibitor, p35 | −1.994 | −1.733 | −1.864
45 | CC#CC(=O)Nc1cc2c(Nc3ccc(F)c(Cl)c3)ncnc2cn1 [EGFR/ErbB-2/ErbB-4 Inhibitor] | 0.4572 | 0.3338 | 0.3955
46 | PI 3-KbInhibitor II | – | 2.315 | 1.096
47 | O=c1c2ccccc2[nH]c(=S)n1CCN1CCC(=C(c2ccc(F)cc2)c2ccc(F)cc2)CC1 [Diacylglycerol Kinase Inhibitor II] | −0.9879 | 0.3398 | −0.324
48 | CN[C@@H]1C[C@H]2O[C@@](C)([C@@H]1OC)n1c3ccccc3c3c4c(c5c6ccccc6n2c5c31)C(=O)N[C@@H]4O [UCN-01] | −7.46 | −8.298 | −7.879
49 | N/C(=N\[N+](=O)[O-])N/N=C\c1ccc(-c2cccc([N+](=O)[O-])c2)o1 [ERK Inhibitor III] | 0.9783 | 2.555 | 1.767
50 | Nc1[nH]nc2nc3ccccc3nc12 [Cdk1/5 Inhibitor] | −2.414 | −4.695 | −3.555
51 | PI 3-Kγ Inhibitor VII | −0.08397 | −0.6851 | −0.3845
52 | CCCCc1c(-c2ccc(OC)cc2)[nH]c2nccnc12 [Aloisine, RP106] | −0.8722 | −4.242 | −2.557
